{"source": "paper PMC10571041", "about": "“Activity of Single Insect Olfactory Receptors Triggered by Airborne Compounds Recorded in Self-Assembled Tethered Lipid Bilayer Nanoarchitectures” (ACS Applied Materials & Interfaces, 2023)", "biological_target": "T1, EcorOBP15-m1 (odorant binding protein) (Eupeodes corollae, UniProt A0A8F9RZG6, F82L)", "T1 construct": "recombinant protein expressed in E. coli", "T1 sequence (A0A8F9RZG6 22-145 F82L)": "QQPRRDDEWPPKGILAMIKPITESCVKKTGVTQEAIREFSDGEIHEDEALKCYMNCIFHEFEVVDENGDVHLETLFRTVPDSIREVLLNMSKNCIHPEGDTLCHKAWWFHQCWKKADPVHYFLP", "assay": "competitive fluorescence displacement of 1-NPN", "data": [{"smiles": "CCCCCC(=O)OCC", "note": "[ethyl hexanoate]", "values": [{"measurement": "Kd", "value": 7.4, "unit": "µM"}]}]}
